Test system: male and female Sprague–Dawley rats
Experiment: 90-day subchronic oral gavage toxicity study
Format: in vivo, rat
Set-up: key to NOEL, absolute liver weight increase / LOEL, absolute liver weight increase / NOEL, relative kidney weight increase / LOEL, relative kidney weight increase / NOEL, absolute kidney weight increase / LOEL, absolute kidney weight increase / NOEL, relative liver weight increase / LOEL, relative liver weight increase: NR: no response, no statistically significant dose-dependent changes
Summary of the method: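 Rats dosed daily by oral gavage in corn oil (3 mL/kg) for 90 days, five dose levels plus control, n = 10/sex/group, euthanized SD 91. Endpoints: clinical observation, bodyweight, feed intake, FOB/locomotor activity, ophthalmology, terminal hematology, serum chemistry, coagulation, plasma parent PFAS, organ weights, histopathology. Groups vs control by ANOVA/Dunnett's (p<0.05).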

With CC(=O)C(F)(F)C(F)(F)C(F)(F)F [MHFPK, Methyl heptafluoropropyl ketone] the “Bodyweight (BW) and bodyweight gain” value (90-day, both sexes, all doses) was “No changes in BW or BW gain over the course of the study”, the Clinical observations (90-day, both sexes, all doses) was “None” and the Coagulation endpoints (90-day, both sexes, all doses) was “Males at ≥37.5 mg/kg-day, from minimal to mild dose-dependent prolongations in PT; no effects in females”. For the same compound, the Feed consumption (90-day, both sexes, all doses) was “No changes in males; some statistically significant changes in females, not considered as compound related”, the Functional observational battery (90-day, both sexes, all doses) was “No changes” and the Gross lesions (90-day, both sexes, all doses) was “None considered as MHFPK related”. The Hematology (90-day, both sexes, all doses) was “From minimal to mild dose-dependent increases in MPV in both sexes at ≥18.8 mg/kg-day”, the Histopathology (90-day, both sexes, all doses) was “None considered as MHFPK related” and the Locomotor activity (90-day, both sexes, all doses) was “No effects”. For the same compound, the Morbidity and mortality (90-day, both sexes, all doses) was “None”, the Ophthalmology (90-day, both sexes, all doses) was “No ocular lesions” and the Organ weight changes (90-day, both sexes, all doses) was “None considered as MHFPK related”. For the same compound, the “LOEL, absolute kidney weight increase” value (female) was “NR”, the “LOEL, absolute liver weight increase” value (female) was “NR” and the “LOEL, relative kidney weight increase” value (female) was “NR”. For the same compound, the “LOEL, relative liver weight increase” value (female) was “NR”, the “NOEL, absolute kidney weight increase” value (female) was “NR” and the “NOEL, absolute liver weight increase” value (female) was “NR”. For the same compound, the “NOEL, relative kidney weight increase” value (female) was “NR”, the “NOEL, relative liver weight increase” value (female) was “NR” and the “% BW Gain” value (female, 18.8 mg/kg-day) was 47.40%. For the same compound, the “% Diff, % BW Gain” value (female, 18.8 mg/kg-day) was 25.52%, the “% Diff, Total BW change” value (female, 18.8 mg/kg-day) was 27.05% and the “% Diff, Total Food Consumed” value (female, 18.8 mg/kg-day) was 11.67%. The A/G (female, 18.8 mg/kg-day) was 1.12±0.13 ratio, the ABEOS (female, 18.8 mg/kg-day) was 0.108±0.037 K/µL and the ABNEUT (female, 18.8 mg/kg-day) was 1.004±0.296 K/µL. The ABRETi (female, 18.8 mg/kg-day) was 195.85±38.05 10^9/L, the ALB (female, 18.8 mg/kg-day) was 4.26 ± 0.27 g/dL and the ALPi (female, 18.8 mg/kg-day) was 69.1±55.5 U/L. The APTT (female, 18.8 mg/kg-day) was 16.80 s, the BUN (female, 18.8 mg/kg-day) was 15.5 ± 2.2 mg/dL and the CHOL (female, 18.8 mg/kg-day) was 100.6 ± 17.0 mg/dL. For the same compound, the GLOB (female, 18.8 mg/kg-day) was 3.82 ± 0.36 g/dL, the GLUC (female, 18.8 mg/kg-day) was 158.0 ± 18.9 mg/dL and the HCT (female, 18.8 mg/kg-day) was 46.27±2.37%. For the same compound, the HGB (female, 18.8 mg/kg-day) was 14.58 ± 0.67 g/dL, the “Kidney Weight” value (female, 18.8 mg/kg-day) was 1.94 g and the “Kidney/Body Weight” value (female, 18.8 mg/kg-day) was 0.56%. The “Kidney/Brain Weight” value (female, 18.8 mg/kg-day) was 96.5%, the “Liver Weight” value (female, 18.8 mg/kg-day) was 8.74 g and the “Liver/Body Weight” value (female, 18.8 mg/kg-day) was 2.51%. The “Liver/Brain Weight” value (female, 18.8 mg/kg-day) was 435%, the MPV (female, 18.8 mg/kg-day) was 8.22 ± 0.82 fL and the PT (female, 18.8 mg/kg-day) was 15.23 s. For the same compound, the RBC (female, 18.8 mg/kg-day) was 7.887±0.439 M/µL, the “Total BW change” value (female, 18.8 mg/kg-day) was 115.68 g and the “Total Food Consumed” value (female, 18.8 mg/kg-day) was 1629 g. The “% BW Gain” value (female, 37.5 mg/kg-day) was 44.49%, the “% Diff, % BW Gain” value (female, 37.5 mg/kg-day) was 17.83% and the “% Diff, Total BW change” value (female, 37.5 mg/kg-day) was 18.53%. For the same compound, the “% Diff, Total Food Consumed” value (female, 37.5 mg/kg-day) was 1.46%, the A/G (female, 37.5 mg/kg-day) was 1.05±0.08 ratio and the ABEOS (female, 37.5 mg/kg-day) was 0.102±0.040 K/µL. The ABNEUT (female, 37.5 mg/kg-day) was 1.068±0.314 K/µL, the ABRETi (female, 37.5 mg/kg-day) was 190.80±35.78 10^9/L and the ALB (female, 37.5 mg/kg-day) was 4.17 ± 0.35 g/dL. It also gave an ALPi (female, 37.5 mg/kg-day) of 56.9±24.3 U/L, an APTT (female, 37.5 mg/kg-day) of 18.10 s and a BUN (female, 37.5 mg/kg-day) of 14.7 ± 2.4 mg/dL. For the same compound, the CHOL (female, 37.5 mg/kg-day) was 106.5 ± 21.4 mg/dL, the GLOB (female, 37.5 mg/kg-day) was 3.99 ± 0.28 g/dL and the GLUC (female, 37.5 mg/kg-day) was 161.9 ± 28.0 mg/dL. The HCT (female, 37.5 mg/kg-day) was 46.13±1.42%, the HGB (female, 37.5 mg/kg-day) was 14.42 ± 0.61 g/dL and the “Kidney Weight” value (female, 37.5 mg/kg-day) was 1.84 g. The “Kidney/Body Weight” value (female, 37.5 mg/kg-day) was 0.55%, the “Kidney/Brain Weight” value (female, 37.5 mg/kg-day) was 91.4% and the “Liver Weight” value (female, 37.5 mg/kg-day) was 8.76 g. For the same compound, the “Liver/Body Weight” value (female, 37.5 mg/kg-day) was 2.58%, the “Liver/Brain Weight” value (female, 37.5 mg/kg-day) was 433% and the MPV (female, 37.5 mg/kg-day) was 8.56 ± 0.67 fL. The PT (female, 37.5 mg/kg-day) was 14.98 s, the RBC (female, 37.5 mg/kg-day) was 7.864±0.307 M/µL and the “Total BW change” value (female, 37.5 mg/kg-day) was 107.92 g. The “Total Food Consumed” value (female, 37.5 mg/kg-day) was 1480 g, the “% BW Gain” value (female, 75 mg/kg-day) was 39.38% and the “% Diff, % BW Gain” value (female, 75 mg/kg-day) was 4.28%. The “% Diff, Total BW change” value (female, 75 mg/kg-day) was 4.15%, the “% Diff, Total Food Consumed” value (female, 75 mg/kg-day) was 4.34% and the A/G (female, 75 mg/kg-day) was 1.27±0.60 ratio. For the same compound, the ABEOS (female, 75 mg/kg-day) was 0.090±0.027 K/µL, the ABNEUT (female, 75 mg/kg-day) was 1.005±0.441 K/µL and the ABRETi (female, 75 mg/kg-day) was 193.71±46.37 10^9/L. The ALB (female, 75 mg/kg-day) was 4.45 ± 0.91 g/dL, the ALPi (female, 75 mg/kg-day) was 55.0±18.5 U/L and the APTT (female, 75 mg/kg-day) was 18.68 s. For the same compound, the BUN (female, 75 mg/kg-day) was 16.5 ± 2.1 mg/dL, the CHOL (female, 75 mg/kg-day) was 99.1 ± 21.5 mg/dL and the GLOB (female, 75 mg/kg-day) was 3.85 ± 0.96 g/dL. It also gave a GLUC (female, 75 mg/kg-day) of 159.0 ± 32.6 mg/dL, an HCT (female, 75 mg/kg-day) of 45.88±1.35% and an HGB (female, 75 mg/kg-day) of 14.40 ± 0.50 g/dL. The “Kidney Weight” value (female, 75 mg/kg-day) was 1.91 g, the “Kidney/Body Weight” value (female, 75 mg/kg-day) was 0.59% and the “Kidney/Brain Weight” value (female, 75 mg/kg-day) was 96.8%. For the same compound, the “Liver Weight” value (female, 75 mg/kg-day) was 8.53 g, the “Liver/Body Weight” value (female, 75 mg/kg-day) was 2.62% and the “Liver/Brain Weight” value (female, 75 mg/kg-day) was 432%. It also gave an MPV (female, 75 mg/kg-day) of 8.55 ± 0.75 fL, a PT (female, 75 mg/kg-day) of 14.74 s and an RBC (female, 75 mg/kg-day) of 7.823±0.340 M/µL. The “Total BW change” value (female, 75 mg/kg-day) was 94.83 g, the “Total Food Consumed” value (female, 75 mg/kg-day) was 1522 g and the “% BW Gain” value (female, 150 mg/kg-day) was 37.70%. The “% Diff, % BW Gain” value (female, 150 mg/kg-day) was -0.15%, the “% Diff, Total BW change” value (female, 150 mg/kg-day) was -0.78% and the “% Diff, Total Food Consumed” value (female, 150 mg/kg-day) was 5.76%. It also gave an A/G (female, 150 mg/kg-day) of 1.14±0.34 ratio, an ABEOS (female, 150 mg/kg-day) of 0.093±0.035 K/µL and an ABNEUT (female, 150 mg/kg-day) of 1.175±0.584 K/µL. The ABRETi (female, 150 mg/kg-day) was 193.46±35.08 10^9/L, the ALB (female, 150 mg/kg-day) was 4.37 ± 0.51 g/dL and the ALPi (female, 150 mg/kg-day) was 47.5±8.8 U/L. It also gave an APTT (female, 150 mg/kg-day) of 21.76 s, a BUN (female, 150 mg/kg-day) of 18.2 ± 2.9 mg/dL and a CHOL (female, 150 mg/kg-day) of 104.3 ± 20.7 mg/dL. It also gave a GLOB (female, 150 mg/kg-day) of 4.00 ± 0.81 g/dL, a GLUC (female, 150 mg/kg-day) of 166.7 ± 26.3 mg/dL and an HCT (female, 150 mg/kg-day) of 45.40±1.55%. The HGB (female, 150 mg/kg-day) was 14.27 ± 0.54 g/dL, the “Kidney Weight” value (female, 150 mg/kg-day) was 1.84 g and the “Kidney/Body Weight” value (female, 150 mg/kg-day) was 0.57%. The “Kidney/Brain Weight” value (female, 150 mg/kg-day) was 95.8%, the “Liver Weight” value (female, 150 mg/kg-day) was 8.84 g and the “Liver/Body Weight” value (female, 150 mg/kg-day) was 2.74%. For the same compound, the “Liver/Brain Weight” value (female, 150 mg/kg-day) was 462%, the MPV (female, 150 mg/kg-day) was 8.84 ± 0.70 fL and the PT (female, 150 mg/kg-day) was 14.99 s. The RBC (female, 150 mg/kg-day) was 7.731±0.255 M/µL, the “Total BW change” value (female, 150 mg/kg-day) was 90.34 g and the “Total Food Consumed” value (female, 150 mg/kg-day) was 1542 g. For the same compound, the “% BW Gain” value (female, 300 mg/kg-day) was 39.88%, the “% Diff, % BW Gain” value (female, 300 mg/kg-day) was 5.61% and the “% Diff, Total BW change” value (female, 300 mg/kg-day) was 5.11%. For the same compound, the “% Diff, Total Food Consumed” value (female, 300 mg/kg-day) was 7.99%, the A/G (female, 300 mg/kg-day) was 1.01±0.13 ratio and the ABEOS (female, 300 mg/kg-day) was 0.085±0.022 K/µL. For the same compound, the ABNEUT (female, 300 mg/kg-day) was 1.220±0.506 K/µL, the ABRETi (female, 300 mg/kg-day) was 181.86±36.58 10^9/L and the ALB (female, 300 mg/kg-day) was 4.15 ± 0.28 g/dL. It also gave an ALPi (female, 300 mg/kg-day) of 54.1±22.2 U/L, an APTT (female, 300 mg/kg-day) of 22.79 s and a BUN (female, 300 mg/kg-day) of 17.6 ± 4.5 mg/dL. For the same compound, the CHOL (female, 300 mg/kg-day) was 107.5 ± 21.4 mg/dL, the GLOB (female, 300 mg/kg-day) was 4.16 ± 0.64 g/dL and the GLUC (female, 300 mg/kg-day) was 151.4 ± 28.6 mg/dL. The HCT (female, 300 mg/kg-day) was 48.02±1.91%, the HGB (female, 300 mg/kg-day) was 14.98 ± 0.42 g/dL and the “Kidney Weight” value (female, 300 mg/kg-day) was 1.94 g. The “Kidney/Body Weight” value (female, 300 mg/kg-day) was 0.59%, the “Kidney/Brain Weight” value (female, 300 mg/kg-day) was 97.1% and the “Liver Weight” value (female, 300 mg/kg-day) was 8.59 g. For the same compound, the “Liver/Body Weight” value (female, 300 mg/kg-day) was 2.63% and the “Liver/Brain Weight” value (female, 300 mg/kg-day) was 430%.
